The subject of one experiment is rat paw edema. As to the kind of experiment: carrageenin induced rat paw edema anti-inflammatory assay. In kind it is in vivo. Conditions: for ED50: Rattus norvegicus.
Experiment [1] relates to 2-phenyl-1,4-benzoquinone-induced writhing. As to the kind of experiment: 2-phenyl-1,4-benzoquinone-induced writhing test (analgesia). The experiment is classed as in vivo, mice. Conditions: for ED50: Mus musculus, po. An excerpt:
Compounds of the present invention are also useful as analgesic agents due to their ability to alleviate pain in mammals.
(In writhing tests, fewer writhes than in controls are read as antinociception.)

This note sets out measurements from patent EP0120304A2, “Substituted 4,10-dihydro-10-oxothieno benzoxepins and intermediates thereof, a process for their preparation and their use as medicaments” (HOECHST-ROUSSEL PHARMACEUTICALS INCORPORATED, priority 1983, dated 1984).

Like-named read-outs stand apart in the source and are kept apart here.

For `CC(CO)c1ccc2c(c1)C(=O)c1sccc1CO2` (racemic) [(±)-2-(4,10-Dihydro-10-oxothieno[3,2-c][1]benzoxepin-8-yl)propanol], the ED50 with rat paw edema (2 h, read-out: ED50 (mg/kg; 120 min.)) is 4.3 mg/kg; in experiment [1] (Phenylquinone Writhing, read-out: ED50 (mg/kg; p.o.)), 4.3 mg/kg.
As for `CC(=O)OCCc1ccc2c(c1)C(=O)c1sccc1CO2` [2-(4,10-Dihydro-10-oxothieno[3,2-c][1]benzoxepin-8-yl) ethyl acetate], the “ED50 (mg/kg; 120 min.)” value in the experiment on rat paw edema stood at 11.4 mg/kg.
Take `O=C1c2cc(CCO)ccc2OCc2ccsc21` [(4,10-Dihydro-10-oxothieno[3,2-c][1]benzoxepin-8-yl) ethanol]: the “ED50 (mg/kg; 120 min.)” value in the experiment with rat paw edema worked out at 34.2 mg/kg. In experiment [1] (p.o., Phenylquinone Writhing), the “ED50 (mg/kg; p.o.)” value came to 19.7 mg/kg.
As to `CC(C)Cc1ccc(C(C)C(=O)O)cc1` (stereo not shown) [ibuprofen, reference compound], the ED50 in experiment [1] (orally, in a similar test, read-out: analgesic ED50) was 10.4 mg/kg.
Consider `COc1ccc2c(c1)c(CC(=O)O)c(C)n2C(=O)c1ccc(Cl)cc1` [indomethacin, reference compound], for which the ED50 in the experiment with rat paw edema (po, read-out: anti-inflammatory ED50) is 6 mg/kg.
